Test results published in patent publication US11098063B2, “Diazabicyclic substituted imidazopyrimidines and their use for the treatment of breathing disorders” (Bayer Aktiengesellschaft, priority 2017, dated 2021).

What was measured:
Type in all cases: cell-based
human TASK-1 [1] = target: T1, human TASK-1 (Homo sapiens (Human), UniProt O14649); assay: Two-electrode voltage clamp analysis of human TASK-1 channel in Xenopus laevis oocytes; details: human TASK-1 expressed in Xenopus laevis oocytes, room temperature
T1 sequence (O14649 whole entry): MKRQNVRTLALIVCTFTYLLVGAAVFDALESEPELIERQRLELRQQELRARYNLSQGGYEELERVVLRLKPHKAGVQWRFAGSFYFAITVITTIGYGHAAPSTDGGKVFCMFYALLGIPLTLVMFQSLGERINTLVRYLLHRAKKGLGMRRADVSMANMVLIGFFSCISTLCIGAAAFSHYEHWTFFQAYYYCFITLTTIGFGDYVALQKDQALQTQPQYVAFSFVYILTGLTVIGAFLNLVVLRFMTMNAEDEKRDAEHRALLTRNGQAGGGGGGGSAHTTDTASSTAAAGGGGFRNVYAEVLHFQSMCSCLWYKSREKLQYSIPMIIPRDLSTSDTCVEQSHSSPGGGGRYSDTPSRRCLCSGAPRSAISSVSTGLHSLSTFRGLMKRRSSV
Description: (§1) B-1. In Vitro Electrophysiological Analysis of the Human TASK-1 and TASK-3 Channels Via Two-Electrode Voltage Clamp Technique in Xenopus laevis Oocytes
(§2) Xenopus laevis oocytes were selected as described elsewhere by way of illustration [Decher et al., FEBS Lett. 492, 84-89 (2001)]. Subsequently, the oocytes were injected with 0.5-5 ng of a cRNA solution coding for TASK-1 or TASK-3. For the electrophysiological analysis of the channel proteins expressed in the oocytes, the two-electrode voltage clamp technique [Stühmer, Methods Enzymol. 207, 319-339 (1992)] was used. The measurements were conducted as described [Decher et al., FEBS Lett. 492, 84-89 (2001)] at room temperature (21-22° C.) using a Turbo TEC 10CD amplifier (NPI), recorded at 2 kHz and filtered with 0.4 kHz. Substance administration was performed using a gravitation-driven perfusion system. Here, the oocyte is located in a measuring chamber and exposed to the solution stream of 10 ml/min. The level in the measuring chamber is monitored and regulated by sucking off the solution using a peristaltic pump.

human TASK-3 [2] = target: T2, human TASK-3 (Homo sapiens (Human), UniProt Q9NPC2); assay: Two-electrode voltage clamp analysis of human TASK-3 channel in Xenopus laevis oocytes; details: human TASK-3 expressed in Xenopus laevis oocytes, room temperature
T2 sequence (Q9NPC2 whole entry): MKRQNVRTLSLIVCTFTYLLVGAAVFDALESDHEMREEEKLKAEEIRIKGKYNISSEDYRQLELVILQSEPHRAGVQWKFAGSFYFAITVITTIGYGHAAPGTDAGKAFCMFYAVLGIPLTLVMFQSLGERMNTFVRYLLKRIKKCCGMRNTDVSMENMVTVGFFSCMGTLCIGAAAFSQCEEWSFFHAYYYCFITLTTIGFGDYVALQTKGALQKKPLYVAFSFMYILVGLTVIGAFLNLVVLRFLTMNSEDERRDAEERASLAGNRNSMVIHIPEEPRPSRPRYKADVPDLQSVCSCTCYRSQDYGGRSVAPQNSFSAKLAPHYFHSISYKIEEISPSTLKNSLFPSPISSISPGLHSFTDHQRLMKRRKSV
Description: as §1, §2

human TASK-1 [3] = target: T1, human TASK-1; assay: Inhibition of recombinant TASK-1 in stably transfected CHO cells (voltage-sensitive dye, KCl depolarization); details: depolarization by 40 mM potassium chloride
In short: (§3)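 Stably transfected CHO cells loaded with a voltage-sensitive membrane-potential dye were depolarized with 40 mM KCl in the presence of compound. IC50 is the concentration blocking half of the KCl-induced depolarization.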

human TASK-3 [4] = target: T2, human TASK-3; assay: Inhibition of recombinant TASK-3 in stably transfected CHO cells (voltage-sensitive dye, KCl depolarization); details: depolarization by 40 mM potassium chloride
In short: as §3

SMILES	IC50 (human TASK-1 [1])	IC50 (human TASK-3 [2])	IC50 (human TASK-1 [3])	IC50 (human TASK-3 [4])
CC(C)c1ccc(-c2nc3ncccn3c2CN2CC3COCC(C2)N3C(=O)c2cccc(OC(F)F)n2)cc1 [Example 19, [6-(Difluoromethoxy)pyridin-2-yl](7-{[2-(4-isopropylphenyl)imidazo[1,2-a]pyrimidin-3-yl]methyl}-3-oxa-7,9-diazabicyclo[3.3.1]non-9-yl)methanone]	239 ± 2.7 nM	774 ± 67.1 nM	22000 nM	59 nM
Cc1ocnc1C(=O)N1C2CCC1CN(Cc1c(-c3ccc(Cl)cc3)nc3ncccn13)C2 [Example 48]			400 nM	23 nM
O=C(Nc1cc(C(F)(F)F)ccc1Cl)N1C2CCC1CN(Cc1c(-c3ccc(Cl)cc3)nc3ncccn13)C2 [Example 97, 3-{[2-(4-chlorophenyl)imidazo[1,2-a]pyrimidin-3-yl]methyl}-N-[2-chloro-5-(trifluoromethyl)phenyl]-3,8-diazabicyclo[3.2.1]octane-8-carboxamide]			31000 nM	450 nM

Continued, in another order:

IC50 (human TASK-1 [1])	IC50 (human TASK-3 [2])	SMILES	IC50 (human TASK-1 [3])	IC50 (human TASK-3 [4])
17.9 ± 2.2 nM	367 ± 67.6 nM	CC(C)c1ccc(-c2nc3ncccn3c2CN2CC3CCC2CN3C(=O)c2ncoc2C2CC2)cc1 (single isomer, unassigned) [Example 27, (5-Cyclopropyl-1,3-oxazol-4-yl)(5-{[2-(4-isopropylphenyl)imidazo[1,2-a]pyrimidin-3-yl]methyl}-2,5-diazabicyclo[2.2.2]oct-2-yl)methanone]	1200 nM	10 nM
31.2 ± 5.8 nM	140 ± 34.6 nM	COc1ccc(Cl)c(C(=O)N2CC3CCC2CN3Cc2c(-c3ccc(C(C)C)cc3)nc3ncccn23)n1 (single isomer, unassigned) [Example 26, (3-Chloro-6-methoxypyridin-2-yl)(5-{[2-(4-isopropylphenyl)imidazo[1,2-a]pyrimidin-3-yl]methyl}-2,5-diazabicyclo[2.2.2]oct-2-yl)methanone]	1400 nM	16 nM
44.4 ± 4.4 nM	71.8 ± 15.5 nM	COc1ccc(F)c(C(=O)N2CC3CCC2CN3Cc2c(-c3ccc(Cl)cc3)nc3ncccn23)n1 (centres unmarked) [Example 41]	1500 nM	100 nM
